Laboratory results reported in patent US20260078122A1, “INDAZOLE COMPOUNDS AS PKMYT1 KINASE INHIBITORS” (Hoffmann-La Roche Inc., priority 2023, published 2026).

Target: T1, recombinant human Myt1 (full length PKMYT1) (Homo sapiens, UniProt Q99640)
T1 sequence (Q99640 1-499): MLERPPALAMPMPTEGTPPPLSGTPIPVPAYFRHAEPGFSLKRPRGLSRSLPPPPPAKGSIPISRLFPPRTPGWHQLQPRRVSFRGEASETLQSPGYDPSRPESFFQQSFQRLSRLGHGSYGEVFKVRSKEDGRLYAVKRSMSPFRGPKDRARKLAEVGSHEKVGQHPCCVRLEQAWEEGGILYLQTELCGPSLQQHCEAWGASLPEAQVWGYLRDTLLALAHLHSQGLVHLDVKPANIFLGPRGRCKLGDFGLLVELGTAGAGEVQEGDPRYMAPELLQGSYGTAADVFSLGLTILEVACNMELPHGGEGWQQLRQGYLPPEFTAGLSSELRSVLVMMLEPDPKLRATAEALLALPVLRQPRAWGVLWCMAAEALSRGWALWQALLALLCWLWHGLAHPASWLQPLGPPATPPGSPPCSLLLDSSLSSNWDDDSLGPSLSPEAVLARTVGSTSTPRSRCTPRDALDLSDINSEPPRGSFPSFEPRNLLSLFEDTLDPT
Assay: ADP-Glo assay (Myt1 kinase activity)

Structure (SMILES)	IC50 [nM]
Cc1nc2c(-c3ccc(F)c4[nH]ncc34)c(N)c(=O)[nH]c2c(Cl)c1C [Example 57, 3-Amino-8-chloro-4-(7-fluoro-1H-indazol-4-yl)-6,7-dimethyl-1H-1,5-naphthyridin-2-one]	11.7
Cc1cc2[nH]c(=O)c(N)c(-c3ccc(F)c4[nH]ncc34)c2nc1OCC1(C#N)CC1 [Example 58, 1-[[7-Amino-8-(7-fluoro-1H-indazol-4-yl)-3-methyl-6-oxo-5H-1,5-naphthyridin-2-yl]oxymethyl]cyclopropanecarbonitrile]	< 10
Cc1cc2[nH]c(=O)c(N)c(-c3ccc(F)c4[nH]ncc34)c2nc1OCC(F)F [Example 059, 3-Amino-6-(2,2-difluoroethoxy)-4-(7-fluoro-1H-indazol-4-yl)-7-methyl-1H-1,5-naphthyridin-2-one]	< 10
COc1nc2c(-c3ccc(F)c4[nH]ncc34)c(N)c(=O)[nH]c2cc1C [Example 060, 3-Amino-4-(7-fluoro-1H-indazol-4-yl)-6-methoxy-7-methyl-1H-1,5-naphthyridin-2-one]	< 10
Cc1cc2[nH]c(=O)c(N)c(-c3ccc(F)c4[nH]ncc34)c2nc1OC(F)F [Example 062, 3-Amino-6-(difluoromethoxy)-4-(7-fluoro-1H-indazol-4-yl)-7-methyl-1H-1,5-naphthyridin-2-one]	14.6
Cc1cc2[nH]c(=O)c(N)c(-c3ccc(F)c4[nH]ncc34)c2nc1OCC12CC(C1)C2 [Example 063, 3-Amino-6-(1-bicyclo[1.1.1]pentanylmethoxy)-4-(7-fluoro-1H-indazol-4-yl)-7-methyl-1H-1,5-naphthyridin-2-one]	9.7
Cc1cc2[nH]c(=O)c(N)c(-c3ccc(F)c4[nH]ncc34)c2nc1OC(C)C [Example 064, 3-Amino-4-(7-fluoro-1H-indazol-4-yl)-6-isopropoxy-7-methyl-1H-1,5-naphthyridin-2-one]	< 10
CCCOc1nc2c(-c3ccc(F)c4[nH]ncc34)c(N)c(=O)[nH]c2cc1C [Example 065, 3-Amino-4-(7-fluoro-1H-indazol-4-yl)-7-methyl-6-propoxy-1H-1,5-naphthyridin-2-one]	14.7
Cc1cc2[nH]c(=O)c(N)c(-c3ccc(F)c4[nH]ncc34)c2nc1OCC(F)(F)F [Example 066, 3-Amino-4-(7-fluoro-1H-indazol-4-yl)-7-methyl-6-(2,2,2-trifluoroethoxy)-1H-1,5-naphthyridin-2-one]	11.6
COC(=O)C1CC(Oc2nc3c(-c4ccc(F)c5[nH]ncc45)c(N)c(=O)[nH]c3cc2C)C1 (stereo not shown) [Example 067, Methyl 3-[[7-amino-8-(7-fluoro-1H-indazol-4-yl)-3-methyl-6-oxo-5H-1,5-naphthyridin-2-yl]oxy]cyclobutanecarboxylate]	24.4
Cc1cc2[nH]c(=O)c(N)c(-c3ccc(F)c4[nH]ncc34)c2nc1OCCN(C)C [Example 068, 3-Amino-6-[2-(dimethylamino)ethoxy]-4-(7-fluoro-1H-indazol-4-yl)-7-methyl-1H-1,5-naphthyridin-2-one]	17.5
COCC#Cc1nc2c(-c3ccc(F)c4[nH]ncc34)c(N)c(=O)[nH]c2cc1C [Example 071, 3-Amino-4-(7-fluoro-1H-indazol-4-yl)-6-(3-methoxyprop-1-ynyl)-7-methyl-1H-1,5-naphthyridin-2-one]	13.1
COC(C)(C)C#Cc1nc2c(-c3ccc(F)c4[nH]ncc34)c(N)c(=O)[nH]c2cc1C [Example 072, 3-Amino-4-(7-fluoro-1H-indazol-4-yl)-6-(3-methoxy-3-methyl-but-1-ynyl)-7-methyl-1H-1,5-naphthyridin-2-one]	11.2
Cc1cc2[nH]c(=O)c(N)c(-c3ccc(F)c4[nH]ncc34)c2nc1OCC(C)(C)O [Example 078, 3-Amino-4-(7-fluoro-1H-indazol-4-yl)-6-(2-hydroxy-2-methyl-propoxy)-7-methyl-1H-1,5-naphthyridin-2-one]	17.2
Cc1cc2[nH]c(=O)c(N)c(-c3ccc(F)c4[nH]ncc34)c2nc1OC1CC(C#N)C1 (stereo not shown) [Example 079, 3-[[7-Amino-8-(7-fluoro-1H-indazol-4-yl)-3-methyl-6-oxo-5H-1,5-naphthyridin-2-yl]oxy]cyclobutanecarbonitrile]	17.8
Cc1cc2[nH]c(=O)c(N)c(-c3ccc(F)c4[nH]ncc34)c2nc1O[C@H]1C[C@H](F)C1 [Example 080, trans-3-Amino-6-(3-fluorocyclobutoxy)-4-(7-fluoro-1H-indazol-4-yl)-7-methyl-1H-1,5-naphthyridin-2-one]	21.1
Cc1cc2[nH]c(=O)c(N)c(-c3ccc(F)c4[nH]ncc34)c2nc1OCCC(F)F [Example 081, 3-Amino-6-(3,3-difluoropropoxy)-4-(7-fluoro-1H-indazol-4-yl)-7-methyl-1H-1,5-naphthyridin-2-one]	14.6

Structure (SMILES)	IC50 [nM]
COC(=O)c1nc2c(-c3ccc(F)c4[nH]ncc34)c(N)c(=O)[nH]c2cc1C [Example 087, Methyl 7-amino-8-(7-fluoro-1H-indazol-4-yl)-3-methyl-6-oxo-5H-1,5-naphthyridine-2-carboxylate]	12.3
Cc1cc2[nH]c(=O)c(N)c(-c3ccc(F)c4[nH]ncc34)c2nc1C(C)(C)O [Example 088, 3-Amino-4-(7-fluoro-1H-indazol-4-yl)-6-(1-hydroxy-1-methyl-ethyl)-7-methyl-1H-1,5-naphthyridin-2-one]	47
Cc1cc2[nH]c(=O)c(N)c(-c3ccc(F)c4[nH]ncc34)c2nc1C1COC1 [Example 093, 3-Amino-4-(7-fluoro-1H-indazol-4-yl)-7-methyl-6-(oxetan-3-yl)-1H-1,5-naphthyridin-2-one]	11.9
Nc1c(-c2ccc(F)c3[nH]ncc23)c2nc(Cl)c(C3CC3)cc2[nH]c1=O [Example 095, 3-Amino-6-chloro-7-cyclopropyl-4-(7-fluoro-1H-indazol-4-yl)-1H-1,5-naphthyridin-2-one]	< 10
Cc1cc2[nH]c(=O)c(N)c(-c3ccc(F)c4[nH]ncc34)c2nc1OC1CC(C(C)(C)O)C1 (stereo not shown) [Example 096, 3-Amino-4-(7-fluoro-1H-indazol-4-yl)-6-[3-(1-hydroxy-1-methyl-ethyl)cyclobutoxy]-7-methyl-1H-1,5-naphthyridin-2-one]	65.2
Cc1cc2[nH]c(=O)c(N)c(-c3ccc(F)c4[nH]ncc34)c2nc1C(F)(F)F [Example 097, 3-Amino-4-(7-fluoro-1H-indazol-4-yl)-7-methyl-6-(trifluoromethyl)-1H-1,5-naphthyridin-2-one]	24.9
COc1cc(C)cc2[nH]c(=O)c(N)c(-c3ccc(F)c4[nH]ncc34)c12 [Example 102, 3-Amino-4-(7-fluoro-1H-indazol-4-yl)-5-methoxy-7-methyl-1H-quinolin-2-one]	16
Cc1cc(Cl)c2c(-c3ccc(F)c4[nH]ncc34)c(N)c(=O)[nH]c2c1 [Example 103, 3-Amino-5-chloro-4-(7-fluoro-1H-indazol-4-yl)-7-methyl-1H-quinolin-2-one]	< 10
Cc1cc2[nH]c(=O)c(N)c(-c3ccc(F)c4[nH]ncc34)c2cc1Br [Example 104, 3-Amino-6-bromo-4-(7-fluoro-1H-indazol-4-yl)-7-methyl-1H-quinolin-2-one]	15.7
Cc1cc2[nH]c(=O)c(N)c(-c3ccc(F)c4[nH]ncc34)c2cc1N1CC2(COC2)C1 [Example 105, 3-Amino-4-(7-fluoro-1H-indazol-4-yl)-7-methyl-6-(2-oxa-6-azaspiro[3.3]heptan-6-yl)-1H-quinolin-2-one]	18.5
Cc1cc2[nH]c(=O)c(N)c(-c3ccc(F)c4[nH]ncc34)c2cc1C1CCN(CC(F)(F)F)CC1 [Example 106, 3-Amino-4-(7-fluoro-1H-indazol-4-yl)-7-methyl-6-[1-(2,2,2-trifluoroethyl)-4-piperidyl]-1H-quinolin-2-one]	14.5
Cc1c(Br)nc2c(-c3ccc(F)c4[nH]ncc34)c(N)c(=O)[nH]c2c1Cl [Example 108, 3-Amino-6-bromo-8-chloro-4-(7-fluoro-1H-indazol-4-yl)-7-methyl-1H-1,5-naphthyridin-2-one]	15.1
Cc1c(C2CC2)nc2c(-c3ccc(F)c4[nH]ncc34)c(N)c(=O)[nH]c2c1Cl [Example 109, 3-Amino-8-chloro-6-cyclopropyl-4-(7-fluoro-1H-indazol-4-yl)-7-methyl-1H-1,5-naphthyridin-2-one]	< 10
C#Cc1nc2c(-c3ccc(F)c4[nH]ncc34)c(N)c(=O)[nH]c2c(Cl)c1C [Example 111, 3-Amino-8-chloro-6-ethynyl-4-(7-fluoro-1H-indazol-4-yl)-7-methyl-1H-1,5-naphthyridin-2-one]	< 10
CC(=O)c1nc2c(-c3ccc(F)c4[nH]ncc34)c(N)c(=O)[nH]c2c(Cl)c1C [Example 112, 6-Acetyl-3-amino-8-chloro-4-(7-fluoro-1H-indazol-4-yl)-7-methyl-1H-1,5-naphthyridin-2-one]	< 10
C=Cc1nc2c(-c3ccc(F)c4[nH]ncc34)c(N)c(=O)[nH]c2c(Cl)c1C [Example 113, 3-Amino-8-chloro-4-(7-fluoro-1H-indazol-4-yl)-7-methyl-6-vinyl-1H-1,5-naphthyridin-2-one]	< 10
Cc1c(C2CC2)nc2c(-c3ccc(F)c4[nH]ncc34)c(N)c(=O)[nH]c2c1C1CC1 [Example 114, 3-Amino-6,8-dicyclopropyl-4-(7-fluoro-1H-indazol-4-yl)-7-methyl-1H-1,5-naphthyridin-2-one]	13.6
